# Results taken from patent US8278469B2, “17-hydroxy-17-pentafluoroethyl-estra-4,9(10)-dien-11-aryl derivatives, method of production thereof and use thereof for the treatment of diseases” (Bayer Pharma Aktiengesellschaft, priority 2009, dated 2012).
# Legend:
# [1] = biological target: T1, human progesterone receptor A (PR-A) (Homo sapiens, UniProt P06401); assay: Progesterone receptor-antagonistic action in stable transfectants of SK-N-MC cells with human PR-A and MTV-LUC reporter; type: cell-based
# T1 construct: expressed in transfected cells; host or cells: SK-N-MC human neuroblastoma cells, stably transfected with pRChPR-A-neo and pMMTV-LUC
# T1 sequence (P06401 1-769 isoform P06401-2): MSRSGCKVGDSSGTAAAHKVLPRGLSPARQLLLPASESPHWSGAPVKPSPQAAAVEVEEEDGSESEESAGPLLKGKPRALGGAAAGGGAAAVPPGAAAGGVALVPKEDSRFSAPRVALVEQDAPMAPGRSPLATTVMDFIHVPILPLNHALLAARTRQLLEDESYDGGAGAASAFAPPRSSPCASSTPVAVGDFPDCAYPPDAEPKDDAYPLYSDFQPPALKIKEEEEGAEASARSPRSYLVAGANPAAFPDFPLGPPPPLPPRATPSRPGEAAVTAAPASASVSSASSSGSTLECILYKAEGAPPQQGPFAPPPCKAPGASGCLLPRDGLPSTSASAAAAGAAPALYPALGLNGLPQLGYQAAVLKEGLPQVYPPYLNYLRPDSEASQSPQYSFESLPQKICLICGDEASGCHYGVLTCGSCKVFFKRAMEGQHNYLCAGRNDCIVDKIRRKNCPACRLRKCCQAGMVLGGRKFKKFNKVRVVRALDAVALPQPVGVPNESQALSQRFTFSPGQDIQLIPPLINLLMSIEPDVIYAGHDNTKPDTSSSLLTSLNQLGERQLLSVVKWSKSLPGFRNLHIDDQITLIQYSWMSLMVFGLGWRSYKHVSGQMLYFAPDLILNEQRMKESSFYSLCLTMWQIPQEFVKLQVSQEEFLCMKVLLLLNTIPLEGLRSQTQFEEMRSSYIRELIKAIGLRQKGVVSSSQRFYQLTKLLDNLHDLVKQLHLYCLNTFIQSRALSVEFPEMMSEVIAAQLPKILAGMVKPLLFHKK
# Protocol: Progesterone Receptor-Antagonistic Action in Stable Transfectants of Human Neuroblastoma Cells (SK-N-MC Cells) with the Human Progesterone A or Progesterone B Receptor and an MTV-LUC Reporter Construct
# SK-N-MC cells (human neuroblastoma cells), which have been stably transfected with plasmids, which express the human progesterone receptor B (pRChPR-B-neo) or the human progesterone receptor A (pRChPR-A-neo) and a reporter construct (pMMTV-LUC), were incubated for 24 hours either in the absence (negative control) or in the presence of increasing amounts of the respective test compound (0.01 nmol/l, 0.1 nmol/l, 1 nmol/l, 10 nmol/l, 100 nmol/l and 1 μmol/l), in order to determine the agonistic efficacy. As positive control of reporter gene induction, the cells were treated with the synthetic gestagen promegestone (0.01 nmol/l, 0.1 nmol/l, 1 nmol/l, 10 nmol/l, 100 nmol/l and 1 μmol/l). For determination of the antagonistic activity, the cells were treated with 0.1 nmol/l promegestone and additionally with increasing amounts of the respective test compound (0.01 nmol/l, 0.1 nmol/l, 1 nmol/l, 10 nmol/l, 100 nmol/l and 1 μmol/l). The activity of the LUC reporter gene (LUC=luciferase) was determined in the cell lysates and was measured as RLU (relative light units). All measured values are given as percentage efficacy and as EC50 or IC50 concentrations.
# 11β-(4-Acetylphenyl)-20,20,21,21,21-pentafluoro-17-hydroxy-19-nor-17α-pregna-4,9-dien-3-one and 20,20,21,21,21-pentafluoro-17-hydroxy-11β-[4-(hydroxyacetyl)phenyl]-19-nor-17α-pregna-4,9-dien-3-one, very potent and therefore preferred examples from WO98/34947 and WO2008/058767, were tested as comparative compounds along with the test compound.
# [2] = Metabolic stability in human liver microsomes (HLM); type: in vitro ADME; conditions: HLM 0.5 mg/ml protein, 1 μM, 37° C., pH 7.4; well-stirred model, phase I reactions
# Protocol: Metabolic Stability of (11β,17β)-17-hydroxy-11-[4-(methylsulphonyl)phenyl]-17-(pentafluoroethyl)estra-4,9-dien-3-one and (11β,17β)-17-hydroxy-11-[4′-(methylsulphonyl)-biphenyl-4-4-yl]-17-(pentafluoroethyl)estra-4,9-dien-3-one in Human Liver Microsomes (HLM)
# Isolated human liver microsomes (HLM) were used for assessing the metabolic stability of compounds of general formula I.
# Incubations were carried out with 2.4 ml of HLM solution (0.5 mg/ml protein content), 30 μl of the test compound (final concentration 1 μM) and 0.6 ml of the cofactor mixture (=NADPH-generating system of 3 IU glucose-6-phosphate dehydrogenase, 14.6 mg glucose-6-phosphate, 1.2 mg NADP) at 37° C. in 100 mM phosphate buffer at pH 7.4. Samples are taken at 6 time points (2-60 min), precipitated with an equal volume of methanol and the recovery of the test substances used in the supernatant is determined by LC-MS/MS analysis. The intrinsic clearance of the substance in the liver microsome preparation can be calculated from the half-life found for the breakdown of the substance. Based on this, together with various physiological characteristics according to the well-stirred model, it is then possible to predict a (metabolic) in vivo clearance with respect to phase I reactions. […]
# [3] = Chemical stability against temperature, light and oxidative stress; type: physicochemical; conditions: compared with the analogue with an alkanoyl or hydroxyalkanoyl group
# cardiovascular system = assay: Action on the cardiovascular system (incl. ECG) of anaesthetized beagle dogs; type: in vivo; conditions: anaesthetized female beagle dogs, i.v. 0.1; 0.33 and 1 mg/kg, in comparison with the control
# Protocol: Investigation of the Action on the Cardiovascular System (Incl. ECG) of Anaesthetized Beagle Dogs
# (11β,17β)-17-Hydroxy-11-[4-(methylsulphonyl)phenyl]-17-(pentafluoroethyl)estra-4,9-dien-3-one, dissolved in a mixture of PEG 400 and HP-β-CD (60% PEG 400, 40% HP-β-CD 30%), was administered intravenously to anaesthetized female beagle dogs. The body weight of the dogs was >9 kg. 3 dogs were treated per group and additionally 3 dogs in the control group. 0.1; 0.33 and 1 mg/kg of the substance was administered in 3 consecutive infusions, in each case over a period of 30 minutes. The maximum amount of vehicle was 0.4 ml per kg for 30 minutes. Blood samples were taken from the animals at various time points. The highest plasma level (average for all 3 animals) was 1650 ng/ml at the end of the third infusion.
smiles,measurement,setting,value
"C[C@]12C[C@H](c3ccc(S(C)(=O)=O)cc3)C3=C4CCC(=O)C=C4CC[C@H]3[C@@H]1CC[C@@]2(O)C(F)(F)C(F)(F)F [Example 4, (11β,17β)-17-Hydroxy-11-[4-(methylsulphonyl)phenyl]-17-(pentafluoroethyl)estra-4,9-dien-3-one]",Emax,"[1]; SK-N-MC, 24 h, read-out: Progesterone receptor A (PR-A) Efficacy",100%
same,IC50,"[1]; antagonistic activity against 0.1 nmol/l promegestone, SK-N-MC cells, 24 hours, LUC reporter, read-out: Progesterone receptor A (PR-A) Potency IC50",0.096 nM
same,(metabolic) in vivo clearance in humans predicted,[2],1.7 mL/min/kg
same,Oxidation sensitivity,[3],surprisingly low oxidation sensitivity
same,Stability under the influence of UV light,[3],surprisingly high stability
same,Stability under thermal load,[3],surprisingly high stability
same,"Effects on the cardiovascular system (pulmonary artery pressure, systemic arterial blood pressure, heart rate, ECG)",cardiovascular system,no biologically relevant effects on the cardiovascular system
